Assay results from ChEMBL document CHEMBL4270553, “Synthesis and anticancer activity of new dihydropyrimidinone derivatives” (Eur J Med Chem, 2018).

Experiments:
[1] = tested on: MCF7; experiment: Cytotoxicity against human MCF7 cells after 24 hrs by MTT assay; format: functional, cell-based; settings: MCF7, 24 h
[2] = tested on: PC-3; experiment: cells; settings: Homo sapiens, PC-3, 24 h
Description: Cytotoxicity against human PC3 cells after 24 hrs by MTT assay

[3] = tested on: HCT-116; experiment: cells; settings: Homo sapiens, HCT-116, 24 h
Description: Cytotoxicity against human HCT116 cells after 24 hrs by MTT assay

[4] = tested on: K562; experiment: Antiproliferative activity against human K562 cells assessed as growth inhibition at 10 uM after 48 hrs by sulforhodamine B assay relative to control; format: functional; settings: K562, 48 h, read-out: GI
[5] = tested on: MOLT-4; experiment: Antiproliferative activity against human MOLT4 cells assessed as growth inhibition at 10 uM after 48 hrs by sulforhodamine B assay relative to control; format: functional; settings: MOLT-4, 48 h, read-out: GI
[6] = tested on: SR; experiment: Antiproliferative activity against human SR cells assessed as growth inhibition at 10 uM after 48 hrs by sulforhodamine B assay relative to control; format: functional; settings: read-out: GI
[7] = tested on: HL-60(TB); experiment: Antiproliferative activity against human HL-60(TB) cells assessed as growth inhibition at 10 uM after 48 hrs by sulforhodamine B assay relative to control; format: functional; settings: HL-60, 48 h, read-out: GI
[8] = tested on: A549; experiment: Antiproliferative activity against human A549/ATCC cells assessed as growth inhibition at 10 uM after 48 hrs by sulforhodamine B assay relative to control; format: functional; settings: A549, 48 h, read-out: GI
[9] = tested on: NCI-H322M; experiment: Antiproliferative activity against human NCI-H322M cells assessed as growth inhibition at 10 uM after 48 hrs by sulforhodamine B assay relative to control; format: functional; settings: read-out: GI
[10] = tested on: NCI-H522; experiment: Antiproliferative activity against human NCI-H522 cells assessed as growth inhibition at 10 uM after 48 hrs by sulforhodamine B assay relative to control; format: functional; settings: NCI-H522, 48 h, read-out: GI
[11] = tested on: NCI-H460; experiment: Antiproliferative activity against human NCI-H460 cells assessed as growth inhibition at 10 uM after 48 hrs by sulforhodamine B assay relative to control; format: functional; settings: NCI-H460, 48 h, read-out: GI
[12] = tested on: HCT-116; experiment: Antiproliferative activity against human HCT116 cells assessed as growth inhibition at 10 uM after 48 hrs by sulforhodamine B assay relative to control; format: functional; settings: HCT-116, 48 h, read-out: GI
[13] = tested on: HCT-15; experiment: Antiproliferative activity against human HCT15 cells assessed as growth inhibition at 10 uM after 48 hrs by sulforhodamine B assay relative to control; format: functional; settings: HCT-15, 48 h, read-out: GI
[14] = tested on: SF-295; experiment: Antiproliferative activity against human SF295 cells assessed as growth inhibition at 10 uM after 48 hrs by sulforhodamine B assay relative to control; format: functional; settings: SF-295, 48 h, read-out: GI
[15] = tested on: LOX IMVI; experiment: Antiproliferative activity against human LOXIMVI cells assessed as growth inhibition at 10 uM after 48 hrs by sulforhodamine B assay relative to control; format: functional; settings: read-out: GI
[16] = tested on: UACC-62; experiment: Antiproliferative activity against human UACC62 cells assessed as growth inhibition at 10 uM after 48 hrs by sulforhodamine B assay relative to control; format: functional; settings: UACC-62, 48 h, read-out: GI
[17] = tested on: SK-MEL-5; experiment: Antiproliferative activity against human SK-MEL-5 cells assessed as growth inhibition at 10 uM after 48 hrs by sulforhodamine B assay relative to control; format: functional; settings: SK-MEL-5, 48 h, read-out: GI
[18] = tested on: OVCAR-4; experiment: Antiproliferative activity against human OVCAR4 cells assessed as growth inhibition at 10 uM after 48 hrs by sulforhodamine B assay relative to control; format: functional; settings: OVCAR-4, 48 h, read-out: GI
[19] = tested on: NCI/ADR-RES; experiment: Antiproliferative activity against human NCI/ADR-RES cells assessed as growth inhibition at 10 uM after 48 hrs by sulforhodamine B assay relative to control; format: functional; settings: read-out: GI
[20] = tested on: ACHN; experiment: Antiproliferative activity against human ACHN cells assessed as growth inhibition at 10 uM after 48 hrs by sulforhodamine B assay relative to control; format: functional; settings: read-out: GI
[21] = tested on: CAKI-1; experiment: Antiproliferative activity against human Caki1 cells assessed as growth inhibition at 10 uM after 48 hrs by sulforhodamine B assay relative to control; format: functional; settings: CAKI-1, 48 h, read-out: GI
[22] = tested on: UO-31; experiment: Antiproliferative activity against human UO31 cells assessed as growth inhibition at 10 uM after 48 hrs by sulforhodamine B assay relative to control; format: functional; settings: UO-31, 48 h, read-out: GI
[23] = tested on: PC-3; experiment: Antiproliferative activity against human PC3 cells assessed as growth inhibition at 10 uM after 48 hrs by sulforhodamine B assay relative to control; format: functional; settings: PC-3, 48 h, read-out: GI
[24] = tested on: MCF7; experiment: Antiproliferative activity against human MCF7 cells assessed as growth inhibition at 10 uM after 48 hrs by sulforhodamine B assay relative to control; format: functional; settings: MCF7, 48 h, read-out: GI
[25] = tested on: T47D; experiment: Antiproliferative activity against human T47D cells assessed as growth inhibition at 10 uM after 48 hrs by sulforhodamine B assay relative to control; format: functional; settings: read-out: GI
[26] = tested on: MDA-MB-468; experiment: Antiproliferative activity against human MDA-MB-468 cells assessed as growth inhibition at 10 uM after 48 hrs by sulforhodamine B assay relative to control; format: functional; settings: MDA-MB-468, 48 h, read-out: GI
[27] = tested on: MRC5; experiment: Cytotoxicity against human MRC5 cells; format: cell-based
[28] = tested on: BJ; experiment: Cytotoxicity against human BJ cells; format: cell-based
[29] = Cytotoxicity against human WPE1-NA22 cells; format: cell-based
[30] = tested on: A549; experiment: Induction of apoptosis in human A549 cells assessed as caspase3 expression at 3.04 uM after 2 hrs by ELISA (reference value: 53.45 ng/ml); format: functional
[31] = tested on: A549; experiment: Induction of apoptosis in human A549 cells assessed as caspase9 expression at 3.04 uM after 2 hrs by ELISA (reference value: 0.1726 ng/ml); format: functional
[32] = tested on: A549; experiment: Potency index, ratio of compound activity to 5-FU activity for caspase3 expression in human A549 cells; format: functional
[33] = tested on: A549; experiment: Potency index, ratio of compound activity to 5-FU activity for caspase9 expression in human A549 cells; format: functional
[34] = tested on: A549; experiment: Cell cycle arrest in human A549 cells assessed as accumulation of cells at G0/G1 phase at 2 uM after 24 hrs by propidium iodide staining-based flow cytometric analysis (reference value: 67.62%); format: functional
[35] = tested on: A549; experiment: Cell cycle arrest in human A549 cells assessed as accumulation of cells at S phase at 2 uM after 24 hrs by propidium iodide staining-based flow cytometric analysis (reference value: 25.26%); format: functional
[36] = tested on: A549; experiment: Cell cycle arrest in human A549 cells assessed as accumulation of cells at G2/M phase at 2 uM after 24 hrs by propidium iodide staining-based flow cytometric analysis (reference value: 6.2%); format: functional
[37] = tested on: A549; experiment: Cell cycle arrest in human A549 cells assessed as accumulation of cells at pre-G1 phase at 2 uM after […] by propidium iodide staining-based flow cytometric analysis (reference value: 0.92%); format: functional
[38] = tested on: A549; experiment: Induction of apoptosis in human A549 cells assessed as viable cells at 2 uM after 24 hrs by Annexin V-FITC/propidium iodide staining-based flow cytometric analysis (reference value: 97.5%); format: functional; settings: A549, 24 h, read-out: Activity
[39] = tested on: A549; experiment: Induction of apoptosis in human A549 cells assessed as early apoptotic cells at 2 uM after 24 hrs by Annexin V-FITC/propidium iodide staining-based flow cytometric analysis (reference value: 0.52%); format: functional
[40] = tested on: A549; experiment: Induction of apoptosis in human A549 cells assessed as late apoptotic cells at 2 uM after 24 hrs by Annexin V-FITC/propidium iodide staining-based flow cytometric analysis (reference value: 0.33%); format: functional
[41] = tested on: A549; experiment: Induction of apoptosis in human A549 cells assessed as necrotic cells at 2 uM after 24 hrs by Annexin V-FITC/propidium iodide staining-based flow cytometric analysis (reference value: 0.07%); format: functional
[42] = tested on: A549; experiment: Induction of apoptosis in human A549 cells 24 hrs by propidium iodide staining-based flow cytometric analysis (reference value: 0.92%); format: functional
[43] = biological target: T1, Serine/threonine-protein kinase mTOR (Homo sapiens, UniProt P42345); experiment: Inhibition of mTOR (unknown origin) incubated for 1 hr by ELISA relative to control; settings: concentration not given here
[44] = biological target: T1, Serine/threonine-protein kinase mTOR; experiment: Inhibition of mTOR (unknown origin) incubated for 1 hr by ELISA
[45] = tested on: HeLa; experiment: Cytotoxicity against human HeLa cells; format: functional, cell-based

## CCOC(=O)C1=C(CSc2nc3cc(C)ccc3[nH]2)N(C)C(=O)NC1c1ccccc1 (configuration not stated)
[1]
  IC50: 19.4 µM
[2]
  IC50: 22.3 µM
[3]
  IC50: 9.5 µM

## CCOC(=O)C1=C(CSC(=S)N(C2CCCCC2)C2CCCCC2)N(C)C(=O)NC1c1ccccc1 (configuration not stated)
[4]
  inhibition of growth at 10 µM: 65%
[5]
  inhibition of growth at 10 µM: 72%
[6]
  inhibition of growth at 10 µM: 71%
[7]
  inhibition of growth at 10 µM: 85%
[8]
  inhibition of growth at 10 µM: 53%
[9]
  inhibition of growth at 10 µM: 9%
[10]
  inhibition of growth at 10 µM: 42%
[11]
  inhibition of growth at 10 µM: 88%
[12]
  inhibition of growth at 10 µM: 74%
[13]
  inhibition of growth at 10 µM: 61%
[14]
  inhibition of growth at 10 µM: 61%
[15]
  inhibition of growth at 10 µM: 67%
[16]
  inhibition of growth at 10 µM: 54%
[17]
  inhibition of growth at 10 µM: 86%
[18]
  inhibition of growth at 10 µM: 56%
[19]
  inhibition of growth at 10 µM: 37%
[20]
  inhibition of growth at 10 µM: 63%
[21]
  inhibition of growth at 10 µM: 75%
[22]
  inhibition of growth at 10 µM: 56%
[23]
  inhibition of growth at 10 µM: 79%
[24]
  inhibition of growth at 10 µM: 54%
[25]
  inhibition of growth at 10 µM: 50%
[26]
  inhibition of growth at 10 µM: 53%
[27]
  IC50: 32 µM
[28]
  IC50: 18.2 µM
[29]
  IC50: 32.1 µM
[30]
  Activity: 560.4 ng/mL
[31]
  Activity: 18.14 ng/mL
[32]
  Ratio: 10
[33]
  Ratio: 100
[34]
  Activity: 58.25%
[35]
  Activity: 21.95%
[36]
  Activity: 12.41%
[37]
  Activity: 7.39%
[38]
  viability at 2 µM: 90.7%
[39]
  Activity: 3.27%
[40]
  Activity: 3.31%
[41]
  Activity: 0.81%
[42]
  Activity: 7.39%
[43]
  inhibition: 86.6%
[44]
  IC50: 640 nM
[45]
  IC50: 1850 nM

## CNC(=O)c1cc(Oc2ccc(NC(=O)Nc3ccc(Cl)c(C(F)(F)F)c3)cc2)ccn1 [SORAFENIB]
[45]
  IC50: 640 nM

## COc1cccc2c1C(=O)c1c(O)c3c(c(O)c1C2=O)C[C@@](O)(C(=O)CO)C[C@@H]3O[C@H]1C[C@H](N)[C@H](O)[C@H](C)O1 [DOXORUBICIN]
[27]
  IC50: 14.8 µM
[28]
  IC50: 17.6 µM
[29]
  IC50: 18.2 µM

## CCOC(=O)C1=C(CSc2nnc(-c3ccc(C)cc3)o2)N(C)C(=O)NC1c1ccccc1 (configuration not stated)
[1]
  IC50: 25.3 µM
[2]
  IC50: 61.8 µM
[3]
  IC50: 36 µM
